In publication PMC5564600 (Oncotarget, 2017):

How the values were obtained:
Test in all cases: biochemical
Type in all cases: binding
[1] = molecular target: T1, panel of 442 kinases (Homo sapiens, UniProt P36888, D835H); details: FLT3(D835H); for remaining activity at 1 µM: read-out: % of control at 1 µM
T1 construct: purchased Ambit Biosciences (scanMAXX KINOMEscan)
T1 sequence (P36888 27-993 D835H): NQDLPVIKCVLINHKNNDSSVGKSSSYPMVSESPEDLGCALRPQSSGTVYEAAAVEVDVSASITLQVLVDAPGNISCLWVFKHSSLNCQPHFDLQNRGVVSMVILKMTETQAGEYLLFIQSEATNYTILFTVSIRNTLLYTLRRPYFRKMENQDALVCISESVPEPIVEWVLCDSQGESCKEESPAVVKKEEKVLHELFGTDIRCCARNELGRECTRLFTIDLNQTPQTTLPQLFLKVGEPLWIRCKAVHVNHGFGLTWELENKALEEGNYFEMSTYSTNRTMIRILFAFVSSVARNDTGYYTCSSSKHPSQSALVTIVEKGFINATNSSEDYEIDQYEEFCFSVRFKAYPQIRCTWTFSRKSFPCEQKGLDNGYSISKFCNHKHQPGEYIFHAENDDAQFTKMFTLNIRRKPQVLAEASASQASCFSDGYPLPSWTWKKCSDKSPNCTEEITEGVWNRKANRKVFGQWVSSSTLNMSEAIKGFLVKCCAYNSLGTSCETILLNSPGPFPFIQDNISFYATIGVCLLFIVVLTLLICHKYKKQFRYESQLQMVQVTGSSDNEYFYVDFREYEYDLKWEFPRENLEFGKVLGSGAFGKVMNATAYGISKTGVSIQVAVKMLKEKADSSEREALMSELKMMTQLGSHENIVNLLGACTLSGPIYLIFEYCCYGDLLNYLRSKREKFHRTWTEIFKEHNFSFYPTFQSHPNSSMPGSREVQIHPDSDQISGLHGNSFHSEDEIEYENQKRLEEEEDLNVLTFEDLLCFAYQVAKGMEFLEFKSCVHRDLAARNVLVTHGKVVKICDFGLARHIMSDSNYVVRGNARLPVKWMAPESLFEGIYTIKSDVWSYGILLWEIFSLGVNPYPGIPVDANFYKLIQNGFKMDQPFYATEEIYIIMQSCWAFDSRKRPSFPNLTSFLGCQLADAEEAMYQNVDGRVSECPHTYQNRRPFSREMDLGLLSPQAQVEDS

[2] = molecular target: T2, panel of 442 kinases (Homo sapiens, UniProt P17948); details: FLT1; for remaining activity at 1 µM: read-out: % of control at 1 µM
T2 construct: purchased Ambit Biosciences (scanMAXX KINOMEscan)
T2 sequence (P17948 27-1338): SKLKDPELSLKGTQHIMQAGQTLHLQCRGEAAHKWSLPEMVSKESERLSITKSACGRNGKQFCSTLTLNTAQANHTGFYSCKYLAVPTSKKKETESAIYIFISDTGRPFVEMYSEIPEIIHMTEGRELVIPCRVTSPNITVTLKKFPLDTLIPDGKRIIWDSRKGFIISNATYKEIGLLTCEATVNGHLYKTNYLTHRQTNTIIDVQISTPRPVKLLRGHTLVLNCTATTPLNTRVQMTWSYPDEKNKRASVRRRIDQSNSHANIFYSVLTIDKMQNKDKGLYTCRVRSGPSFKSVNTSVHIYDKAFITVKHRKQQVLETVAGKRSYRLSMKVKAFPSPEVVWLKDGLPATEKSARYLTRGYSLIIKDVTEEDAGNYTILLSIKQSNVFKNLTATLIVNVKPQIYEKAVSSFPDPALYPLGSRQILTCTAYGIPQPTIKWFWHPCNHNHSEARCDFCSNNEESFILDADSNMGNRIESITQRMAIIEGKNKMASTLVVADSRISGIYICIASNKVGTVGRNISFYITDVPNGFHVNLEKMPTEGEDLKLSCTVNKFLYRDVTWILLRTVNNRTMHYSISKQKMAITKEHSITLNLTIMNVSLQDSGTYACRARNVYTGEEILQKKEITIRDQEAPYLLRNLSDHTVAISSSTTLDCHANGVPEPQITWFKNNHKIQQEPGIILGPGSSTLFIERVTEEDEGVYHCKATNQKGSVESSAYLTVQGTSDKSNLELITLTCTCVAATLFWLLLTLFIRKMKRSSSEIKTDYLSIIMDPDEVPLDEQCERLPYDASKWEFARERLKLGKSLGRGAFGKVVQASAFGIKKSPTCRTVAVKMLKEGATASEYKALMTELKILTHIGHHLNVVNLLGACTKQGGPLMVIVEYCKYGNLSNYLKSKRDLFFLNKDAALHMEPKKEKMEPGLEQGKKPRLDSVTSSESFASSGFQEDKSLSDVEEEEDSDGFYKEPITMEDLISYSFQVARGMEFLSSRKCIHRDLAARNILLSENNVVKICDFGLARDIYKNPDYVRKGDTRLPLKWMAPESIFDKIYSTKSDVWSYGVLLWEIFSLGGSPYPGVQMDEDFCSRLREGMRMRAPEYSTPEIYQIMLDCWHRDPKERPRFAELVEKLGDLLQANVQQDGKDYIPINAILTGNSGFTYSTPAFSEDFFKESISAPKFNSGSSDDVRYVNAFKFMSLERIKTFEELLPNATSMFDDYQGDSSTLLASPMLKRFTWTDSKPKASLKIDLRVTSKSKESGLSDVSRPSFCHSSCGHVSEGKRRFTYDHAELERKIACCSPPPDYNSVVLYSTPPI

[3] = molecular target: T3, panel of 442 kinases (Homo sapiens, UniProt Q8IWQ3); details: BRSK2; for remaining activity at 1 µM: read-out: % of control at 1 µM
T3 construct: purchased Ambit Biosciences (scanMAXX KINOMEscan)
T3 sequence (Q8IWQ3 1-736): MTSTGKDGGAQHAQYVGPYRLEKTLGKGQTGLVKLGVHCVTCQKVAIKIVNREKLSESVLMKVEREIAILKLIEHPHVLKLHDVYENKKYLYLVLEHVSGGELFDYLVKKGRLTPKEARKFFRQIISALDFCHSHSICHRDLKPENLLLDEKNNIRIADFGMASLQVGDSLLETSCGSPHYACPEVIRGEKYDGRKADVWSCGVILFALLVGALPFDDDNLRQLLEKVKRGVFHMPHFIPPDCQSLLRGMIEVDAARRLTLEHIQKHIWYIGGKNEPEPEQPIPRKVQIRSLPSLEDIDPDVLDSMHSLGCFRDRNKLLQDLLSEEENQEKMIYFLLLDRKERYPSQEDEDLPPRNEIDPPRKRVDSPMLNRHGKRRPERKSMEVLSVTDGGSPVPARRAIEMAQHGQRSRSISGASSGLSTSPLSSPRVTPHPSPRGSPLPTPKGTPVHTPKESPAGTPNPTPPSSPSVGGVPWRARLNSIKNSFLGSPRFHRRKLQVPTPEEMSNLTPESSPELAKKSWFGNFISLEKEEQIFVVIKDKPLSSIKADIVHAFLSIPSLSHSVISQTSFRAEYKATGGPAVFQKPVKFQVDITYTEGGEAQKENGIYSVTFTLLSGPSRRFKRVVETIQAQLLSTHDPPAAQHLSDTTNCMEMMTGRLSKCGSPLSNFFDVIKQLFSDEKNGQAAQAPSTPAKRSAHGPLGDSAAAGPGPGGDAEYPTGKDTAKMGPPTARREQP

[4] = molecular target: T4, panel of 442 kinases (Homo sapiens, UniProt Q13188); details: kinase MST2; for remaining activity at 1 µM: read-out: % of control at 1 µM
T4 construct: purchased Ambit Biosciences (scanMAXX KINOMEscan)
T4 sequence (Q13188 1-491): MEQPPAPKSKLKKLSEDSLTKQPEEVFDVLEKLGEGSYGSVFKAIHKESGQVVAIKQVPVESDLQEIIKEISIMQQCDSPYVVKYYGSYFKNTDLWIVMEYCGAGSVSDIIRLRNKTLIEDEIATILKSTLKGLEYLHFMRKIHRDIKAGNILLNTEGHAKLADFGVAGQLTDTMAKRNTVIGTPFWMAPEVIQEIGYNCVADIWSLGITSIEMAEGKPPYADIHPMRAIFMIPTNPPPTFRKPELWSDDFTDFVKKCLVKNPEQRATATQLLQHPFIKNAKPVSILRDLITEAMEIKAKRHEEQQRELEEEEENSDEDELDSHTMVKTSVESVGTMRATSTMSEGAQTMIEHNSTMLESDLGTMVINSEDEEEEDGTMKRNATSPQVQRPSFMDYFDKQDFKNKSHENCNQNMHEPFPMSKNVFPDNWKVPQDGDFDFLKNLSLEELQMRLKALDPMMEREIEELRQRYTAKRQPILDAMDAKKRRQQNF

[5] = molecular target: T5, panel of 442 kinases (Homo sapiens, UniProt Q16566); details: CAMK4; for remaining activity at 1 µM: read-out: % of control at 1 µM
T5 construct: purchased Ambit Biosciences (scanMAXX KINOMEscan)
T5 sequence (Q16566 1-473): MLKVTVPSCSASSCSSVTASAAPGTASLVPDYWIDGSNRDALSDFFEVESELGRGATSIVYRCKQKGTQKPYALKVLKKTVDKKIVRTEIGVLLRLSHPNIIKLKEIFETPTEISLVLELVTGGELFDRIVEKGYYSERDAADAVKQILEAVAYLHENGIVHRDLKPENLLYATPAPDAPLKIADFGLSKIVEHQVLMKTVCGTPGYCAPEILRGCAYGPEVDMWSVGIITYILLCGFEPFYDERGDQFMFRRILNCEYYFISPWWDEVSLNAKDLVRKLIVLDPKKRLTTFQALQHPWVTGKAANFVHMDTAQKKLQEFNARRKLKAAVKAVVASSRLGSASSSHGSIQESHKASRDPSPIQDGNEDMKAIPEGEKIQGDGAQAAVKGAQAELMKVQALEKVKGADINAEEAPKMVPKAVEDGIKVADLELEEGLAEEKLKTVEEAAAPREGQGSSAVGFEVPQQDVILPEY

[6] = 10 µM, read-out: % of control at 10 µM

Compound | remaining activity at 1 µM [1] [%] | remaining activity at 10 µM [1, 6] [%] | remaining activity at 1 µM [2] [%] | remaining activity at 10 µM [2, 6] [%] | remaining activity at 1 µM [3] [%] | remaining activity at 10 µM [3, 6] [%] | remaining activity at 1 µM [4] [%] | remaining activity at 10 µM [4, 6] [%] | remaining activity at 1 µM [5] [%] | remaining activity at 10 µM [5, 6] [%]
Nc1cc(C(F)(F)F)c(-c2cc(N3CCOCC3)nc(N3CCOCC3)n2)cn1 [Buparlisib] | 89 | 76 | 100 | 100 | 100 | 100 | 89 | 84 | 89 | 100
COc1ncc(-c2ccc3nccc(-c4ccnnc4)c3c2)cc1NS(=O)(=O)c1ccc(F)cc1F [Omipalisib] | 100 | – | 100 | – | 95 | – | 53 | – | 100 | –
FC(F)c1nc2ccccc2n1-c1nc(N2CCOCC2)nc(N2CCOCC2)n1 [ZSTK474, 2-(difluoromethyl)-1-[4,6-di(4-morpholinyl)-1,3,5-triazin-2-yl]-1H-benzimidazole] | 100 | – | 100 | – | 100 | – | 76 | – | 92 | –
Cn1c(=O)n(-c2ccc(C(C)(C)C#N)cc2)c2c3cc(-c4cnc5ccccc5c4)ccc3ncc21 [Dactolisib, 2-methyl-2-[4-(3-methyl-2-oxo-8-quinolin-3-yl-2,3-dihydroimidazo[4,5-c]quinolin-1-yl)-phenyl] propionitrile] | 26 | – | 86 | – | 91 | – | 43 | – | – | –
